# In US20150164837A1, “USE OF AMPHOTERIC SURFACTANTS FOR THE PREVENTION AND TREATMENT OF PATHOGENIC VAGINAL BIOFILMS IN VAGINAL INFECTIONS” (DR. AUGUST WOLFF GMBH & CO. KG ARZNEIMITTEL, priority 2012, published 2015):
# How the values were obtained:
# [1] = test system: vaginal biofilm (Gardnerella vaginalis, Atopobium vaginae); details: cited from earlier work
# [2] = test system: Gardnerella vaginalis biofilms; test: Live/Dead BacLight viability staining, forming (t0) and well developed, still growing (t20m) biofilms; format: cell-based, Gardnerella vaginalis (strain ATCC 14018); details: for inhibition of cell viability (in words): well developed and still growing biofilms (t20m)
# Procedure: (§1) The inhibitory effect of amphoteric surfactants on the formation of Gardnerella vaginalis biofilms were tested in biofilms, grown in 96 well tissue culture test plates. Before starting the biofilm experiments, MIC (minimal inhibitory concentration) values for sodium cocoamphoacetate for planktonic growing Gardnerella vaginalis cultures were determined MIC values for sodium cocoamphoacetate against Gardnerella vaginalis had not been reported so far.
# (§2) Gardnerella vaginalis (strain ATCC 14018) were grown on Columbia agar plates supplemented with 5% sheep blood, liquid cultures were grown in brain heart infusion broth supplemented with 2% (w/v) gelatine, 0.5% yeast extract, 0.1% starch and 1% D-(+)-glucose at 37° C. and with the addition of 5% CO2.
# For a preculture, bacteria were inoculated from plate or glycerol stock and grew overnight. This preculture was used for starting a new culture. Here the cultivation was performed in microtiter plates in a final volume of […] For testing substances in a forming biofilm (t0), substances were added at this time point. After 20 hours of cultivation, measurements determining the mass of biofilm cells and the biofilm viability were started. […]
# The viability was determined using the Live/Dead BacLight bacterial viability staining. […] In contrast, propidium iodide penetrates only bacteria with damaged membranes, causing a reduction in the SYTO 9 stain fluorescence when both dyes are present. […] After 15 min of incubation in the dark fluorescence was measured in a microtiter plate reader equipped with detectors and filter sets for monitoring red (630 nm) and green (530 nm) fluorescence. Afterwards the percentage of the reduction of viability was calculated.
# The tested substances namely cocoamidopropyl hydroxysultaine, disodium cocamphodiacetate, sodium cocoamphopropionate and sodium lauroamphoacetate were dissolved in fresh media and added to a mature G. vaginalis biofilm (t20m, see Example 1). After another 20 hrs of incubation, the biofilm viability was determined via Live/Dead staining, as described above.
# [3] = test system: Gardnerella vaginalis biofilms in the stationary phase; test: Biomass of biofilms in the stationary phase (compounds added in PBS to 20 hours old biofilms); format: cell-based; details: 1 mg/ml to 50 mg/ml
# Procedure: Crystal violet (CV) staining was used to determine the mass of biofilm cells. For this purpose biofilms grown in 96 well tissue test plates were washed with buffer (PBS, pH of 7.4), dried and stained under shaking with 2% crystal violet in ethanol. After washing with buffer, drying and over night extraction with ethanol, the absorbance (OD620) was measured in a plate reader and the percentage of biomass inhibition was calculated. To determine how different concentrations of sodium cocoamphoacetate damage well formed biofilms in the stationary phase, compounds were added in PBS buffer to 20 hours old biofilms and analyzed after further 20 hours of incubation by determining their biomass and viability.
# [4] = test system: Gardnerella vaginalis biofilms; test: Crystal violet staining of biofilm mass, forming (t0) and well developed, still growing (t20m) biofilms; format: cell-based, Gardnerella vaginalis (strain ATCC 14018); details: for inhibition of biofilm formation / reduction of cell mass (in words): well developed and still growing biofilms (t20m)
# Procedure: as §1, §2
# For a preculture, bacteria were inoculated from plate or glycerol stock and grew overnight. This preculture was used for starting a new culture. Here the cultivation was performed in microtiter plates in a final volume of […] For testing substances in a forming biofilm (t0), substances were added at this time point. After 20 hours of cultivation, measurements determining the mass of biofilm cells and the biofilm viability were started.
# For testing substances in a well developed and further growing biofilm (t20m), medium was gently removed after 20 hours of cultivation and compounds were added in fresh medium for enabling further growth. Incubation was performed for another 20 hours.
# At 20 hours (t0) respectively 40 hours of cultivation (t20m) measurements were started, concerning the biofilm formation and viability.
# Crystal violet (CV) staining was used to determine the mass of biofilm cells. For this purpose biofilms grown in 96 well tissue test plates were washed with buffer (PBS, pH of 7.4), dried and stained under shaking with 2% crystal violet in ethanol. After washing with buffer, drying and over night extraction with ethanol, the absorbance (OD620) was measured in a plate reader and the percentage of biomass inhibition was calculated.
compound,measurement,setting,value
Cc1ncc([N+](=O)[O-])n1CCO [metronidazole],effect on the vaginal biofilm,"[1]; 500 mg orally twice daily for 7 days, 18 women",did not erase the Gardnerella vaginalis biofilm completely
same,Nugent Score after treatment,[1]; after 7 day treatment with oral metronidazole,below 7
sodium cocoamphoacetate,decrease of viability of the bacterial cells,"[2]; added at the beginning of biofilm cultivation (t0), 0.25 mg/ml to 1 mg/ml",90%
same,reduction in biofilm formation,[3],44-65%
same,inhibition of biofilm formation,"[4]; added at the beginning of biofilm cultivation (t0), concentrations of 0.25 mg/ml and higher",completely inhibited
disodium cocamphodiacetate,inhibition of cell viability (in words),[2],inhibit the viability
same,inhibition of biofilm formation / reduction of cell mass (in words),[4],reduce the cell mass
sodium lauroamphoacetate,inhibition of cell viability (in words),[2],inhibit the viability
same,inhibition of biofilm formation / reduction of cell mass (in words),[4],reduce the cell mass
